Tests used:
[1] = tested on: brown marmorated stink bug (BMSB), Halyomorpha halys (Stål); assay: Indoor trapping experiment with murgantiol-baited Rescue! Stink Bug Traps in homes; type: in vivo; settings: for behavioral attraction of indoor stink bugs to baited traps: 5 mg lure on rubber septum, traps inside homes, early May, compared to blank control; for stink bugs caught relative to the blank control traps: 5 mg lure, indoor traps, blank control caught average 1 bug/trap
Description: A trapping experiment was carried out inside three homes with decent overwintering stink bug populations in Pittsburgh, Pa., during twelve days in early May to study potential attraction of the BMSB adults to a known Harlequin bug pheromone, murgantiol. During or before the experiment, overwintering stink bugs started waking up from their hibernation stage and walking/crawling inside homes. Three treatment lures and a blank control were tested using Sterling Rescue!® Stink Bug Traps (FIG. 1) in a block design. The three treatments included (i) 5 mg of more polar murgantiol mixture (a mixture of 8 more polar stereoisomers); (ii) 5 mg of less polar murgantiol mixture (a mixture of 8 less polar stereoisomers); and (iii) 5 mg of a racemic mixture of all 16 murgantiol stereoisomers. The test samples of (i), (ii), and (iii) were synthesized and separated based on the methods described by Zahn et al., J. Chem. Ecol. 34:238 (2008). The following scheme outlines the method starting from citronellal to prepare a racemic mixture of stereomers:
Lures were prepared by loading hexane solutions of the test compounds with 1% butylated hydroxytoluene (BHT) added as stabilizer onto grey rubber septa (5 mm sleeve-type; The West Co., Lititz, Pa.) via a rotor evaporator. The blank control dispensers were made in the same fashion as the treatment lures, but without any murgantiol mixtures—that is, rubber septum with hexane only. A set of four Sterling Rescue!® Stink Bug Traps baited with three different isomer mixture test samples of murgantiol dispensers and the blank control were set up in the same room of each selected home on the floor or hung from walls near windows (where stink bug activities were seen earlier). The starting positions of the four test traps within each set (room) were assigned randomly. The distance between traps within the same set was about 8-10 feet, depending on the size of each test room. Traps were checked every day and emptied when ≧5 bugs were captured in the best trap within the set, and their positions were re-randomized for a new replicate to minimize any positional effects.
Trap catch data were converted to proportion (P) of total captured bugs within each replicate to meet the assumptions of normality and homogeneity of variances for ANOVA (analysis of variance). Means were compared by ANOVA followed by the Duncan's multiple range test at α=0.05.

[2] = tested on: Harlequin bug, Murgantia histrionica (Hahn); settings: both sexes; insect-produced and synthetic murgantiol; laboratory bioassays; cited from earlier work

SMILES	behavioral attraction of indoor stink bugs to baited traps [1]	stink bugs caught relative to the blank control traps [1]	attractiveness to BMSB adults indoors ([1]; both sexes, indoors during the overwintering and transition periods)	attraction of sexually mature Harlequin bugs [2]
CC(CCC1OC1(C)C)C1C=CC(C)(O)CC1 (racemic) [racemic mixture of all 16 murgantiol stereoisomers]	significant attraction	five times		
CC(CCC1OC1(C)C)C1C=CC(C)(O)CC1 (single isomer, unassigned) [less polar murgantiol mixture]	weakly attractive			
CC(CCC1OC1(C)C)C1C=CC(C)(O)CC1 (single isomer, unassigned) [more polar murgantiol mixture]	strong attraction	six times		
CC(CCC1OC1(C)C)C1C=CC(C)(O)CC1 (stereo not shown) [murgantiol, 4-[3-(3,3-dimethyloxiran-2-yl)-1-methylpropyl]-1-methylcyclohex-2-en-1-ol]			strongly attractive	attracted sexually mature Harlequin bugs of both sexes
